{"source": "patent US20070231375A1", "about": "“Liposome combination and the use thereof” (Taipei Medical University, priority 2006, published 2007)", "key": {"[1]": {"tested_on": "CL1-0 cells", "assay": "MTT Assay-2 (CL1-0)", "type": "cell-based", "settings": "0.5 μg/ml Doxorubicin; no light"}, "[2]": {"tested_on": "A431 cells", "assay": "MTT Assay-2 (A431)", "type": "cell-based", "settings": "0.5 μg/ml Doxorubicin, no light", "method": "A431 or CL1-5 cells (approx. 5000 cells) were seeded in each well of a 96-well plate and incubated in medium. After 24 hr of incubation, Doxorubicin (FD), Liposomal-Doxorubicin (LD) and Liposomal-Doxorubicin-Hematoporphyrin (LDH) was added into each well and drug concentration was set at 0.5 μg/ml Doxorubicin and 0.3 μg/ml Hp, After 2 hr, the cells of experiment group were illuminated for 10, 20, or 30 J/cm^2, and MTT assay was performed 72 hr later."}}, "data": [{"smiles": "COc1cccc2c1C(=O)c1c(O)c3c(c(O)c1C2=O)C[C@@](O)(C(=O)CO)C[C@@H]3O[C@H]1C[C@H](N)[C@H](O)[C@H](C)O1", "note": "[FD, Doxorubicin]", "values": [{"measurement": "toxicity to cell CL1-0 (in words)", "setting": "[1]", "result": "has toxicity to cell CL1-0 significantly"}, {"measurement": "toxicity to cell A431 (in words)", "setting": "[2]", "result": "has toxicity to cell A431 significantly"}, {"measurement": "activity of mitochondia dehydrogenase (of control group)", "setting": "[2]; A431, 0.3 μg/ml Hp, MTT 72 hr", "result": "about 30%"}]}]}
